Converted amounts (≈) assume the structure as drawn.
Key:
[1] = test system: Staphylococcus aureus; assay: Antibacterial activity against Staphylococcus aureus ATCC 25923 after 24 hrs by broth dilution technique; assay type: functional; conditions: ATCC-25923, 24 h
[2] = test system: Candida albicans; assay: Antifungal activity against Candida albicans after 3 to 4 days by disc diffusion method; assay type: functional
[3] = test system: Talaromyces marneffei; assay: Antifungal activity against Penicillium marneffei after 48 hrs by broth dilution technique; assay type: functional
[4] = test system: Talaromyces marneffei; assay: Antifungal activity against Penicillium marneffei after 3 to 4 days by disc diffusion method; assay type: functional
[5] = test system: Trichophyton mentagrophytes; assay: Antifungal activity against Trichophyton mentagrophytes after 3 to 4 days by disc diffusion method; assay type: functional
[6] = test system: Streptococcus pyogenes; assay: Antibacterial activity against Streptococcus pyogenes clinical isolate after 24 hrs by broth dilution technique; assay type: functional
[7] = test system: Streptococcus pyogenes; assay: Antibacterial activity against Streptococcus pyogenes clinical isolate after 24 hrs by disc diffusion method; assay type: functional
[8] = test system: Pseudomonas aeruginosa; assay: Antibacterial activity against Pseudomonas aeruginosa ATCC 27853 after 24 hrs by broth dilution technique; conditions: ATCC-27853, 24 h
[9] = test system: Klebsiella pneumoniae; assay: Antibacterial activity against Klebsiella pneumoniae clinical isolate after 24 hrs by broth dilution technique; assay type: functional
[10] = test system: Trichophyton mentagrophytes; assay: Antifungal activity against Trichophyton mentagrophytes after 48 hrs by broth dilution technique; assay type: functional
[11] = test system: Pseudomonas aeruginosa; assay: Antibacterial activity against Pseudomonas aeruginosa ATCC 27853 after 24 hrs by disc diffusion method
[12] = test system: Staphylococcus aureus; assay: Antibacterial activity against Staphylococcus aureus ATCC 25923 after 24 hrs by disc diffusion method; assay type: functional
[13] = test system: Aspergillus fumigatus; assay: Antifungal activity against Aspergillus fumigatus after 3 to 4 days by disc diffusion method; assay type: functional
[14] = test system: Aspergillus fumigatus; assay: Antifungal activity against Aspergillus fumigatus after 48 hrs by broth dilution technique; assay type: functional
[15] = test system: Klebsiella pneumoniae; assay: Antibacterial activity against Klebsiella pneumoniae clinical isolate after 24 hrs by disc diffusion method; assay type: functional
[16] = test system: Candida albicans; assay: Antifungal activity against Candida albicans after 48 hrs by broth dilution technique; assay type: functional
[17] = test system: Escherichia coli; assay: Antibacterial activity against Escherichia coli ATCC 25922 after 24 hrs by broth dilution technique; assay type: functional; conditions: ATCC-25922, 24 h
[18] = test system: Escherichia coli; assay: Antibacterial activity against Escherichia coli ATCC 25922 after 24 hrs by disc diffusion method; assay type: functional

MIC [1] [µg/mL]	MIC [3] [µg/mL]	MIC [6] [µg/mL]	MIC [8] [µg/mL]	MIC [9] [µg/mL]	MIC [10] [µg/mL]	Structure (SMILES)	MBC [1] [µg/mL]	diameter of the inhibition zone (DIZ) [2] [mm]	MFC [3] [µg/mL]	diameter of the inhibition zone (DIZ) [4] [mm]	diameter of the inhibition zone (DIZ) [5] [mm]	MBC [6] [µg/mL]	diameter of the inhibition zone (DIZ) [7] [mm]	MBC [8] [µg/mL]	MBC [9] [µg/mL]	MFC [10] [µg/mL]	diameter of the inhibition zone (DIZ) [11] [mm]	diameter of the inhibition zone (DIZ) [12] [mm]	diameter of the inhibition zone (DIZ) [13] [mm]	MFC [14] [µg/mL]	further results
50 (≈ 108 µM)	50 (≈ 108 µM)	50 (≈ 108 µM)	25 (≈ 54 µM)	50 (≈ 108 µM)	12.5 (≈ 27 µM)	CCCCCCCCCCCCCCCC(=O)N(C(=O)NC1CCCCC1)C1CCCCC1	100 (≈ 216 µM)	14.2	100 (≈ 216 µM)	9.9	10.7	100 (≈ 216 µM)	11.2	100 (≈ 216 µM)	100 (≈ 216 µM)	25 (≈ 54 µM)	14.9	10.1	12.5	100 (≈ 216 µM)	MIC [14]: 50 µg/mL (≈ 108 µM); diameter of the inhibition zone (DIZ) [15]: 10.7 mm; MFC [16]: 50 µg/mL (≈ 108 µM); MIC [16]: 25 µg/mL (≈ 54 µM); MBC [17]: 100 µg/mL (≈ 216 µM); MIC [17]: 50 µg/mL (≈ 108 µM); diameter of the inhibition zone (DIZ) [18]: 12.3 mm
100 (≈ 266 µM)	50 (≈ 133 µM)	50 (≈ 133 µM)	100 (≈ 266 µM)	50 (≈ 133 µM)	50 (≈ 133 µM)	CCCCCCCCCCCCCCCCCC(=O)Nc1ccccc1O	100 (≈ 266 µM)	14.7	100 (≈ 266 µM)	10.2	10.5	100 (≈ 266 µM)	10.8	100 (≈ 266 µM)	100 (≈ 266 µM)	100 (≈ 266 µM)	11.9	10.5	12.4	50 (≈ 133 µM)	MIC [14]: 25 µg/mL (≈ 66.6 µM); diameter of the inhibition zone (DIZ) [15]: 11.4 mm; MFC [16]: 25 µg/mL (≈ 66.6 µM); MIC [16]: 12.5 µg/mL (≈ 33.3 µM); MBC [17]: 100 µg/mL (≈ 266 µM); MIC [17]: 100 µg/mL (≈ 266 µM); diameter of the inhibition zone (DIZ) [18]: 12.4 mm
50 (≈ 144 µM)	50 (≈ 144 µM)	50 (≈ 144 µM)	100 (≈ 288 µM)	50 (≈ 144 µM)	25 (≈ 71.9 µM)	CCCCCCCCCCCCCCCC(=O)Nc1ccccc1O	100 (≈ 288 µM)	13.7	100 (≈ 288 µM)	9.3	9.8	100 (≈ 288 µM)	10.6	100 (≈ 288 µM)	100 (≈ 288 µM)	100 (≈ 288 µM)	11.5	9.8	11.6	100 (≈ 288 µM)	MIC [14]: 50 µg/mL (≈ 144 µM); diameter of the inhibition zone (DIZ) [15]: 10.5 mm; MFC [16]: 100 µg/mL (≈ 288 µM); MIC [16]: 50 µg/mL (≈ 144 µM); MBC [17]: 100 µg/mL (≈ 288 µM); MIC [17]: 100 µg/mL (≈ 288 µM); diameter of the inhibition zone (DIZ) [18]: 11.8 mm

— ChEMBL document CHEMBL1759880, “A facile, one-pot synthesis, characterization and antimicrobial activity of o-hydroxy anilide derivatives and 1-substituted-1,3-dicyclohexylurea analogs of long chain carboxylic acids” (2011)
